Test results from publication PMC5599990, “Matriptase Induction of Metalloproteinase‐Dependent Aggrecanolysis In Vitro and In Vivo: Promotion of Osteoarthritic Cartilage Damage by Multiple Mechanisms” (Arthritis & Rheumatology (Hoboken, N.j.), 2017).

Target: T1, matriptase (Homo sapiens, UniProt Q9Y5Y6)
T1 construct: gene ST14; catalytic domain; amino acids 596–855
T1 sequence (Q9Y5Y6 596-855): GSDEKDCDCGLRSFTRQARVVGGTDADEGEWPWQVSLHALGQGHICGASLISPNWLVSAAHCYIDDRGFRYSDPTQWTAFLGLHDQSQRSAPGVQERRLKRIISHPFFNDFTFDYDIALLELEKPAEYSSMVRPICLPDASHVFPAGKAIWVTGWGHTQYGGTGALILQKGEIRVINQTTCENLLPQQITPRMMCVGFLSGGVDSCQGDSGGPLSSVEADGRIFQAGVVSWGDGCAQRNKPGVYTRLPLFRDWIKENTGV
Experiment: isothermal titration calorimetry at […] °C ([…] stoichiometry); also enzyme inhibition, Ki =[…]
Format: binding

N=C(N)c1cccc(C[C@H](NS(=O)(=O)c2cccc(NC(=O)CCN)c2)C(=O)N2CCC(CCN)CC2)c1 [compound 59, (S)‐3‐amino‐N‐(3‐(N‐(1‐(4‐(2‐aminoethyl)piperidin‐1‐yl)‐3‐(3‐carbamimidoylphenyl)‐1‐oxopropan‐2‐yl)sulfamoyl)phenyl)propanamide × 3HCl]
Kd: 20 nM
